Laboratory results: PubChem BioAssay (NCI)
“And” between values parts separate entries of the source, which are not always exact repeats. Equal entries are not always repeated.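 In this assay, cells in 96-well plates receive the compound at five concentrations for 48 hours. Endpoints are linearly interpolated between the surrounding concentrations. The concentration for 50% growth inhibition is given as GI50. TGI denotes the concentration required for complete inhibition of growth.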

Legend:
Assay in all cases: NCI-60 cell line screen, 48 h
HCC-2998 colon = tested on: HCC-2998 colon
KM12 colon = tested on: KM12 colon
NCI-H23 lung = tested on: NCI-H23 lung
NCI-H460 lung = tested on: NCI-H460 lung
NCI-H522 lung = tested on: NCI-H522 lung
OVCAR-5 ovarian = tested on: OVCAR-5 ovarian
SK-MEL-28 melanoma = tested on: SK-MEL-28 melanoma
SK-MEL-5 melanoma = tested on: SK-MEL-5 melanoma
UACC-62 melanoma = tested on: UACC-62 melanoma
PC-3 prostate = tested on: PC-3 prostate

SMILES	GI50 (HCC-2998 colon) [µM]	TGI (HCC-2998 colon) [µM]	GI50 (KM12 colon) [µM]	TGI (KM12 colon) [µM]	GI50 (NCI-H23 lung) [µM]	TGI (NCI-H23 lung) [µM]	GI50 (NCI-H460 lung) [µM]	TGI (NCI-H460 lung)	GI50 (NCI-H522 lung) [µM]	TGI (NCI-H522 lung) [µM]	GI50 (OVCAR-5 ovarian) [µM]	TGI (OVCAR-5 ovarian) [µM]	GI50 (SK-MEL-28 melanoma) [µM]	TGI (SK-MEL-28 melanoma) [µM]	GI50 (SK-MEL-5 melanoma) [µM]	TGI (SK-MEL-5 melanoma) [µM]	TGI (UACC-62 melanoma) [µM]	TGI (PC-3 prostate) [µM]	GI50 (PC-3 prostate) [µM]	GI50 (UACC-62 melanoma) [µM]
CCCC1=C(C(=O)OCC)C(c2ccccc2OC)C(C#N)=C(N)O1 (stereo not given)	77.3	> 100	21.1	> 100	> 100	> 100	39.8	> 100 µM	25.5	60.5	> 100	> 100	26.3	79.4	23.9	64.7				
CC(=O)N1CC(=O)NC1=S				> 100		> 100				> 100		> 100		> 100		> 100	> 100			
Nc1cccc2c1C1=NNC(=O)CC1C2 (stereo not given)		> 100		> 100		> 20.3		> 100 µM		> 100		> 100		> 100		> 100	> 100			
C[C@H](N[C@H]1CCC[C@]1(O)C#Cc1ccc2c(c1)OCO2)c1ccccc1		> 25		> 25		> 25		> 25 µM				> 25		> 25		> 25	> 25	> 25		
COc1cc2c(cc1OC)C1Cc3cc(OC)c(OC)cc3C(C2)O1		> 100		> 100		> 100		> 100 µM				> 100		> 100			> 100	> 100		
COc1cc(NC(=O)CSc2nc3ccccc3c(=O)n2CCc2ccccc2)cc(OC)c1OC									1.65	4.2										
CNS(=O)(=O)c1ccc2[nH]c(O)c(C3=Nc4ccccc4C3=O)c2c1		> 100				> 100		> 100 µM		> 100		> 100		> 100		> 100	> 100	> 100		
Cc1ccc2ccc3ccc(C)nc3c2n1		> 100		> 100		> 100		> 100 µM		> 100		> 100		> 100		> 100	> 100	> 100		
CCOC(=O)C(=O)Nc1c(CC)cccc1C(C)CC (stereo not given)		> 100		> 100		> 100		> 100 µM		> 100		> 100		> 100		> 100	> 100			
NC(=O)Nc1ccc(C(=O)NCCCNC(=O)c2ccc(NC(N)=O)cc2)cc1		> 100		> 100		> 100		> 100 µM		> 100		> 100		> 100		> 100	> 100	> 100		
O=C(NCCNc1nccc(-c2c(-c3cccc(O)c3)nc3sccn23)n1)Nc1cccc(C(F)(F)F)c1	2.68	5.77	2.78	6.98	4.62	32.5	4.79	20.8 µM	2.11	5	16.3	65.3	2.68		2.62	8.43	6.51	12.6	2.94	1.94
C=Cc1cc(OC)c2c(c1)c(=O)oc1c2cc(OC)c2c(O)ccc(C3OC(C)C(O)C(C)(O)C3O)c21 (stereo not given)	0.00253				0.000113		0.000484	0.00652 µM and 0.0584 µM			0.000251							0.00405		0.0012
